Measured values: the supplement of paper PMC10307832

Columns and labels:
Assay in all cases: relative viability (nuclei count vs DMSO), 5 days (fraction); higher = more cells survive
[1] = tested on: A-427
Method in brief: (§1)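 After 5 days of treatment, lung cancer cells in 1536-well plates were fixed and stained in a single step (final 0.05% Triton X-100, 1% formaldehyde, 1 ug/ml Hoechst) and their nuclei counted on 4× images. Treatment had been applied by pin tool the day after seeding as one drug alone or as a fixed anchor-drug dose with five library-drug doses (not always all listed) in √10 steps. Relative viability is the nuclei count of treated wells divided by that of vehicle wells, and values are medians of duplicate plates.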

[2] = tested on: H3255
Method in brief: as §1

[3] = tested on: HARA
Method in brief: as §1

[4] = tested on: HCC-15
Method in brief: as §1

[5] = tested on: HCC-366
Method in brief: as §1

[6] = tested on: LXF-289
Method in brief: as §1

[7] = tested on: NCI-H1437
Method in brief: as §1

[8] = tested on: NCI-H1755
Method in brief: as §1

[9] = tested on: NCI-H1793
Method in brief: as §1

[10] = tested on: NCI-H1915
Method in brief: as §1

[11] = tested on: NCI-H1975
Method in brief: as §1

[12] = tested on: NCI-H2009
Method in brief: as §1

With `O=C(O)CCCCC(CCSCc1ccccc1)SCc1ccccc1` (stereo unspecified) [CPI-613] + COc1cc2c(Oc3ccc(NC(=O)C4(C(=O)Nc5ccc(F)cc5)CC4)cc3F)ccnc2cc1OCCCN1CCOCC1 [Foretinib] (partner 0.25 µM) the relative viability ([1]; first compound 5 µM) was 1.14, the relative viability ([1]; first compound 15.81 µM) was 1.11 and the relative viability ([1]; first compound 50 µM) was 0.86. It also gave a relative viability ([1]; first compound 158.11 µM) of 0.526, a relative viability ([1]; first compound 500 µM) of 0.131 and a relative viability ([2]; first compound 5 µM) of 0.887. It also gave a relative viability ([2]; first compound 15.81 µM) of 0.685, a relative viability ([2]; first compound 50 µM) of 0.89 and a relative viability ([2]; first compound 500 µM) of 0.785. For the same molecule, the relative viability ([3]; first compound 15.81 µM) was 0.778, the relative viability ([3]; first compound 50 µM) was 0.923 and the relative viability ([3]; first compound 158.11 µM) was 0.51. For the same molecule, the relative viability ([3]; first compound 500 µM) was 0.0068, the relative viability ([4]; first compound 5 µM) was 0.974 and the relative viability ([4]; first compound 15.81 µM) was 1. It also gave a relative viability ([4]; first compound 50 µM) of 1.01, a relative viability ([4]; first compound 158.11 µM) of 0.236 and a relative viability ([4]; first compound 500 µM) of 0.039. For the same molecule, the relative viability ([5]; first compound 5 µM) was 0.963, the relative viability ([5]; first compound 15.81 µM) was 0.962 and the relative viability ([5]; first compound 50 µM) was 0.989. For the same molecule, the relative viability ([5]; first compound 158.11 µM) was 0.322, the relative viability ([5]; first compound 500 µM) was 0.0079 and the relative viability ([6]; first compound 5 µM) was 0.974. It also gave a relative viability ([6]; first compound 15.81 µM) of 0.919, a relative viability ([6]; first compound 50 µM) of 0.898 and a relative viability ([6]; first compound 158.11 µM) of 0.226. For the same molecule, the relative viability ([6]; first compound 500 µM) was 0.0507, the relative viability ([7]; first compound 5 µM) was 1.22 and the relative viability ([7]; first compound 15.81 µM) was 1.23. For the same molecule, the relative viability ([7]; first compound 50 µM) was 1.29, the relative viability ([7]; first compound 158.11 µM) was 0.426 and the relative viability ([7]; first compound 500 µM) was 0.0461. For the same molecule, the relative viability ([8]; first compound 5 µM) was 0.886, the relative viability ([8]; first compound 15.81 µM) was 0.878 and the relative viability ([8]; first compound 50 µM) was 0.898. For the same molecule, the relative viability ([8]; first compound 158.11 µM) was 0.887, the relative viability ([8]; first compound 500 µM) was 0.175 and the relative viability ([9]; first compound 5 µM) was 0.608. It also gave a relative viability ([9]; first compound 15.81 µM) of 0.618, a relative viability ([9]; first compound 50 µM) of 0.827 and a relative viability ([9]; first compound 158.11 µM) of 0.385. For the same molecule, the relative viability ([9]; first compound 500 µM) was 0.0145, the relative viability ([10]; first compound 5 µM) was 1.04 and the relative viability ([10]; first compound 15.81 µM) was 1.09. It also gave a relative viability ([10]; first compound 50 µM) of 1.06, a relative viability ([10]; first compound 158.11 µM) of 0.309 and a relative viability ([10]; first compound 500 µM) of 0.132. The relative viability ([11]; first compound 5 µM) was 0.943, the relative viability ([11]; first compound 15.81 µM) was 0.964 and the relative viability ([11]; first compound 50 µM) was 0.963. For the same molecule, the relative viability ([11]; first compound 158.11 µM) was 0.713, the relative viability ([11]; first compound 500 µM) was 0.151 and the relative viability ([12]; first compound 5 µM) was 1.25. It also gave a relative viability ([12]; first compound 15.81 µM) of 1.16 and a relative viability ([12]; first compound 50 µM) of 1.12.
